Tests used:
[1] = Solubility of the purified compounds in solvents; assay type: physicochemical
[2] = target: T1, mouse semaphorin 3A (Sema3A) (Mus musculus, UniProt O08665); assay: Suppressing action on the growth cone collapse activity of Sema3A in chick dorsal root ganglion culture; assay type: cell-based; settings: E7 chick embryo dorsal root ganglions; compound added 1 hour before 3 units/ml mouse Sema3A; growth cone collapse rate after another 1 hour
T1 sequence (O08665 21-772): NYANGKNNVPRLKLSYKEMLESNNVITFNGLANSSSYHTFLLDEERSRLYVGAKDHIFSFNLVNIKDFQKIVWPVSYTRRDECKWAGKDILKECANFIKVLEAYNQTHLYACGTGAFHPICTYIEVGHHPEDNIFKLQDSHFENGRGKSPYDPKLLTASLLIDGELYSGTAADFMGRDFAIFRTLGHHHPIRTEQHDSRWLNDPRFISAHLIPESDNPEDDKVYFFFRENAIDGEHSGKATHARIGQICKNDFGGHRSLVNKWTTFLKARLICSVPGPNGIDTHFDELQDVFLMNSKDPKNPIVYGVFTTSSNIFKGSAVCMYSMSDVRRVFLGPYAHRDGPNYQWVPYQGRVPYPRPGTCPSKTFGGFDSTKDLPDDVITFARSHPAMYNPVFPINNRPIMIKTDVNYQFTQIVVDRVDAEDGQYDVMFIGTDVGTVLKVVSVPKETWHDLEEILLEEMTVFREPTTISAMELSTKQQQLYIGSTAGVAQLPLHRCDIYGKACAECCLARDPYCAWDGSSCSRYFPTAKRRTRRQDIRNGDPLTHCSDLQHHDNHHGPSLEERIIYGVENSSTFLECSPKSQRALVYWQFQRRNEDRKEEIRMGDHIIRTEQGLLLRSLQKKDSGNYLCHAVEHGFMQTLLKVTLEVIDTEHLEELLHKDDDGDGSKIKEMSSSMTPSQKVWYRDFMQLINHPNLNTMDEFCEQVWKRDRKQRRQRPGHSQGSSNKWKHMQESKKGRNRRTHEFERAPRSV
Text: The growth cone collapse activity of semaphorin described above means an activity to make growth cones disappear. This activity is observed after performing the following steps: cultivating nerve cells (generally tissue explants of ganglions) for a given period of time in vitro until the extended neurites as well as the growth cones at the edge of said neurites can be observed; and then adding thereto a given concentration (e.g. about 3 unit/ml; 1 unit/ml is defined as a semaphorin concentration in which 50% of the growth cones are collapsed) of semaphorin and cultivating for another given period of time (e.g. one hour). In order to get the extended neurites and the growth cones at the edge of said neurites ready for the observation, the nerve cells are generally cultivated for 10 to 20 hours in vitro, which duration can be altered according to a nerve variant and culture conditions. When the growth cone collapse caused by semaphorin is suppressed by, for example, the addition of a compound to this experimental system at an appropriate concentration about one hour prior to the addition of semaphorin, then such compound is regarded as a semaphorin inhibitor, especially as a compound with suppressing action on the growth cone collapse activity of semaphorin.
A 96-well plate (Sumitomo Bakelite Co., Ltd.) pre-coated with polylysine was further coated with laminine (20 μg/ml of laminine, for 1 hour at room temperature). Each well was added with 100 μl of medium (F12 medium containing 10% bovine fetal serum, 20 ng/ml of NGF, 100 units/ml of penicillin and 100 μg/ml of streptomycin) which medium was then inoculated with dorsal root nerve ganglions excised from E7 (Embryonic day 7) chick embryo and cultured for 16 to 20 hours under 5% CO2 at 37° C. Subsequently, the object compounds were added to media at various concentrations and 3 units/ml of mouse semaphorin 3A (Sema3A) was added after cultivating for 1 hour. The cultures were further incubated for another 1 hour. Glutaraldehyde was quickly added therein after said 1 hour to make the final concentration 1%. The cultures were then left for 15 minutes at room temperature so that the tissue sections were fixed, and collapse rates of the growth cones were microscopically determined. IC50 values was defined as a concentration of each compound at which concentration the collapse rate C equals to(A+B)/2, wherein (A) % is the collapse rate of growth cone of the negative control group (neither compounds nor Sema3A was added); (B) % is the collapse rate of growth cone of the positive control group (compounds were not added but Sema3A was added); and (C) % is the collapse rate of growth cone of the test group (each one compound and Sema3A were added).

nerve regeneration = assay: Nerve regeneration in vivo (earlier finding of the inventors)
semaphorin = assay: Semaphorin inhibitory activity (earlier finding of the inventors)

Question: With `CC(=O)[C@]12c3c(cc(O)c(O)c3C(=O)O)OC[C@]13Cc1c(oc4cc(O)c(O)c(C(=O)O)c4c1=O)[C@H]2C(C)=C(O)C3=O` (relative stereo) [SPF-3059-16] as the molecule, how does the “Solubility in DMSO” value [1] read?
Answer: The value was “soluble”.

Question: And the Solubility in hexane [1]?
Answer: Its Solubility in hexane is “Insoluble”.

Question: What about the Solubility in methanol [1] of the same molecule?
Answer: The Solubility in methanol was “soluble”.

Question: What about the Solubility in water [1] of the same molecule?
Answer: The Solubility in water was “Insoluble”.

Question: What about the IC50 [2] of the same molecule?
Answer: The IC50 was 861 nM.

Question: For `CC(=O)c1c(C)c(C(=O)C2COc3cc(O)c(O)c(C(=O)O)c3C2=O)cc2c(=O)c3c(C(=O)O)c(O)c(O)cc3oc12` (centres unmarked) [SPF-3059-1], which “Promotion of nerve regeneration” value (nerve regeneration) is on record?
Answer: Its value is “promote nerve regeneration in vivo”.

Question: And the Semaphorin inhibitory activity (semaphorin)?
Answer: The Semaphorin inhibitory activity was “have semaphorin inhibitory activity”.

Question: Which results are given for `Cc1cc(=O)c2c(o1)-c1c(c3c(c(O)c1C(=O)O)OC1(C)Cc4oc5cc(O)c(O)c(C(=O)O)c5c(=O)c4C3O1)OC2` (centres unmarked) [SPF-3059-8]?
Answer: Solubility in DMSO [1]: soluble; Solubility in hexane [1]: Insoluble; Solubility in methanol [1]: soluble; Solubility in water [1]: Insoluble; IC50 [2]: 3460 nM

Question: With `CC1=Cc2oc3cc(O)c(O)c(C(=O)O)c3c(=O)c2C(c2c(C)oc3c(c2=O)COc2cc(O)c(O)c(C(=O)O)c2-3)O1` (centres unmarked) [SPF-3059-17] as the molecule, how does the “Solubility in DMSO” value [1] read?
Answer: The value was “soluble”.

Question: What about the Solubility in hexane [1] of the same molecule?
Answer: The Solubility in hexane was “Insoluble”.

Question: And the Solubility in methanol [1]?
Answer: The Solubility in methanol was “soluble”.

Question: What about the Solubility in water [1] of the same molecule?
Answer: The Solubility in water was “Insoluble”.

Question: What about the IC50 [2] of the same molecule?
Answer: Its IC50 is 225 nM.

Question: Which results are given for `CC12Cc3oc4cc(O)c(O)c(C(=O)O)c4c(=O)c3C(O1)C1C(=O)C3=C(OC1(C)O2)c1c(cc(O)c(O)c1C(=O)O)OC3` (centres unmarked) [SPF-3059-19]?
Answer: Solubility in DMSO [1]: soluble; Solubility in hexane [1]: Insoluble; Solubility in methanol [1]: soluble; Solubility in water [1]: Insoluble; IC50 [2]: 838 nM

Question: Which “Solubility in DMSO” value [1] does the source give for `CC(=O)c1c(C)c(C(=O)c2coc3cc(O)c(O)c(C(=O)O)c3c2=O)cc2c(=O)c3c(O)cc(O)c(O)c3oc12` [SPF-3059-22] here?
Answer: Its value is “soluble”.

Question: And the Solubility in hexane [1]?
Answer: Its Solubility in hexane is “Insoluble”.

Question: What about the Solubility in methanol [1] of the same molecule?
Answer: Its Solubility in methanol is “soluble”.

Question: What about the Solubility in water [1] of the same molecule?
Answer: The Solubility in water was “Insoluble”.

Question: What about the IC50 [2] of the same molecule?
Answer: The IC50 was 912 nM.

Question: Which results are given for `CC(=O)c1cc(-c2c(C(C)=O)cc3c(=O)c4c(C(=O)O)c(O)c(O)cc4oc3c2C(C)=O)cc(C(=O)c2c(O)cc(O)c(O)c2C(=O)O)c1O` [SPF-3059-23]?
Answer: Solubility in DMSO [1]: soluble; Solubility in hexane [1]: Insoluble; Solubility in methanol [1]: soluble; Solubility in water [1]: Insoluble; IC50 [2]: 728 nM

Question: With `CC(=O)c1c2c(c3ccc4c(=O)c5c(C(=O)O)c(O)c(O)cc5oc4c3c1C)C(=O)C1(CC2)COc2cc(O)c(O)c(C(=O)O)c2C1=O` (centres unmarked) [SPF-3059-38] as the molecule, how does the “Solubility in DMSO” value [1] read?
Answer: Its value is “soluble”.

Question: And the Solubility in hexane [1]?
Answer: The Solubility in hexane was “Insoluble”.

Question: And the Solubility in methanol [1]?
Answer: The Solubility in methanol was “soluble”.

Question: And the Solubility in water [1]?
Answer: Its Solubility in water is “Insoluble”.

Question: What about the IC50 [2] of the same molecule?
Answer: Its IC50 is 19.9 nM.

Question: Which “Solubility in DMSO” value [1] does the source give for `CC(=O)C1=C2c3cc(O)c(O)cc3OCC2(C(=O)/C=C(/C)O)Cc2c1oc1cc(O)c(O)c(C(=O)O)c1c2=O` (centres unmarked) [SPF-3059-40] here?
Answer: The value was “soluble”.

Question: And the Solubility in hexane [1]?
Answer: The Solubility in hexane was “Insoluble”.

Question: And the Solubility in methanol [1]?
Answer: The Solubility in methanol was “soluble”.

Question: What about the Solubility in water [1] of the same molecule?
Answer: The Solubility in water was “Insoluble”.

Question: And the IC50 [2]?
Answer: Its IC50 is 233 nM.

Question: Which results are given for `CC(=O)c1c(C)c(-c2oc3cc(O)c(O)c(C(=O)O)c3c(=O)c2Cc2c(C)oc3c(c2=O)COc2cc(O)c(O)c(C(=O)O)c2-3)cc2c(=O)c3cc(O)c(O)cc3oc12` [SPF-3059-42]?
Answer: Solubility in DMSO [1]: soluble; Solubility in hexane [1]: Insoluble; Solubility in methanol [1]: soluble; Solubility in water [1]: Insoluble; IC50 [2]: 78.1 nM

Source: US7642362B2, “Compounds as semaphorin inhibitors” (Dainippon Sumitomo Pharma Co., Ltd., priority 2002, dated 2010)
